Assay [1] has as its target ligand binding domain of human FXR (Homo sapiens (Human), UniProt Q96RI1). Nature of the assay: FXR ligand binding assay (LanthaScreen TR-FRET, SRC2-2 peptide recruitment). Particulars: for pEC50: -log EC50, concentration required to produce 50% activation; for Emax: read-out: % Efficacy. A general note: Time-resolved FRET reads energy transfer from a long-lived donor to a nearby acceptor.

Assay [2] has as its target human Farnesoid X receptor ligand-binding domain/Gal4 DNA binding domain chimera (Homo sapiens (Human), UniProt Q96RI1). Nature of the assay: Cell-based assay of FXR activation (FXR-UAS-bla HEK 293T beta-lactamase reporter). Conditions: cellular FXR beta-lactamase reporter assay; for Emax: HEK-293T, read-out: % Efficacy. The method in brief: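 HEK 293T cells stably expressing a Gal4-fused human FXR LBD and a UAS-driven beta-lactamase reporter were incubated with serially diluted compounds for 16 h at 37 °C in phenol red-free DMEM with 2% charcoal-stripped FBS. CCF4 FRET read-out: excitation 409 nm, emission 447 nm. pEC50 comes from a 3-parameter logistic fit, and efficacy is given as % of GW4064.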
(Reporter assays use an easily measured gene product as a stand-in for the process of interest.)

Where [3] appears, read: extent of activation relative to GW4064.
Setting [4] is: FXR-UAS-bla HEK 293T cells, 16 h, pEC50 = -log EC50.

Sequence of ligand binding domain of human FXR (Q96RI1 262-486): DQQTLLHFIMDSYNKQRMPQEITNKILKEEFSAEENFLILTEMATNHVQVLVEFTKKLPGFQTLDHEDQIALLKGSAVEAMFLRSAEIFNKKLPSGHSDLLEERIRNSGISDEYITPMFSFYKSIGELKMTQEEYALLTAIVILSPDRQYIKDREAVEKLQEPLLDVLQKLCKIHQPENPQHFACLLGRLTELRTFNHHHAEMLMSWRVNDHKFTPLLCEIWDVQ
Sequence of human Farnesoid X receptor ligand-binding domain/Gal4 DNA binding domain chimera (Q96RI1 262-486, change not shown): as the sequence (Q96RI1 262-486) above
Sequence of human Farnesoid X receptor ligand-binding domain/Gal4 DNA binding domain chimera (P04386 1-147 partner): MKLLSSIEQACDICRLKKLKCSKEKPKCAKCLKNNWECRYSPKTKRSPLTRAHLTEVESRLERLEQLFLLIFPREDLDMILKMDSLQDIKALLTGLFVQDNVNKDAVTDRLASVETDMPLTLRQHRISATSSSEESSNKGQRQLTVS

For `O=C(NS(=O)(=O)CCCCCCCCCCN1CCC1)c1ccc(N2C[C@@H]3C[C@H]2C[C@H]3OCc2c(-c3c(Cl)cccc3Cl)noc2C2CC2)c(F)c1` [Compound I-227, N-[10-(azetidin-1-yl)decanesulfonyl]-4-[(1S,4S,5R)-5-{[5-cyclopropyl-3-(2,6-dichlorophenyl)-1,2-oxazol-4-yl]methoxy}-2-azabicyclo[2.2.1]heptan-2-yl]-3-fluorobenzamide], the pEC50 (commonly the negative decadic logarithm of the EC50, by convention in mol/L) in assay [1] came out at 8.1. The values for the Emax in assay [1] (setting [3]) and in assay [2] (setting [3]) were 163% and 97%, respectively. Also, in assay [2] (setting [4]), the response was half-maximal at 1 nM (EC50).
Regarding `O=C(O)c1cc(OC2CC2)c2nc(N3C[C@@H]4C[C@H]3C[C@H]4OCc3c(-c4c(Cl)cccc4Cl)noc3C3CC3)sc2c1` [Compound I-259, 4-cyclopropoxy-2-[(1S,4S,5R)-5-{[5-cyclopropyl-3-(2,6-dichlorophenyl)-1,2-oxazol-4-yl]methoxy}-2-azabicyclo[2.2.1]heptan-2-yl]-1,3-benzothiazole-6-carboxylic Acid], in assay [1], the pEC50 is given as 8.5. In addition, the Emax in assay [1] (setting [3]) turned out to be 124%; in assay [2] (setting [3]), 114%. Further, in assay [2] (setting [4]), the midpoint of the response, the EC50, lay at 0.1 nM.
`Cc1cccc(Cl)c1-c1noc(C2CC2)c1CO[C@@H]1C[C@@H]2C[C@H]1CN2c1ccc(C(=O)NS(=O)(=O)C2CCOCC2)cc1` [Compound I-203, 4-((1S,4S,5R)-5-((3-(2-chloro-6-methylphenyl)-5-cyclopropylisoxazol-4-yl)methoxy)-2-azabicyclo[2.2.1]heptan-2-yl)-N-((tetrahydro-2H-pyran-4-yl)sulfonyl)benzamide] yielded a pEC50 in assay [1] of 9. For the same molecule, the Emax in assay [1] (setting [3]) was found to be 157%; in assay [2] (setting [3]), 102%. Also, in assay [2] (setting [4]), the EC50 (usually the concentration giving half of the maximal effect) is 0.158 nM.
Taken in the same sequence, the figures for `O=C(O)CCCc1ccc(N2C[C@@H]3C[C@H]2C[C@H]3OCc2c(-c3c(Cl)cccc3Cl)noc2C2CC2)cc1` [Compound I-148, 4-{4-[(1S,4S,5R)-5-{[5-cyclopropyl-3-(2,6-dichlorophenyl)-1,2-oxazol-4-yl]methoxy}-2-azabicyclo[2.2.1]heptan-2-yl]phenyl}butanoic Acid] were 7.8, 136%, 117% and 20 nM.
Take `O=C(O)c1cc(OCC(F)(F)F)c2nc(N3C[C@@H]4C[C@H]3C[C@H]4OC(=O)c3c(-c4c(Cl)cccc4Cl)noc3C3CC3)sc2c1` [Compound I-7, 2-[(1S,4S,5R)-5-[5-cyclopropyl-3-(2,6-dichlorophenyl)-1,2-oxazole-4-carbonyloxy]-2-azabicyclo[2.2.1]heptan-2-yl]-4-(2,2,2-trifluoroethoxy)-1,3-benzothiazole-6-carboxylic acid]: the pEC50 in assay [1] came out at 7.4. For the same molecule, the Emax in assay [1] (setting [3]) is 162%; in assay [2] (setting [3]), 119%. The molecule also showed an EC50 in assay [2] (setting [4]) of 5.01 nM.
Taken in the same sequence, the figures for `O=C(NS(=O)(=O)C1CC1)c1ccc([N+]2([O-])C[C@@H]3C[C@H]2C[C@H]3OCc2c(-c3c(Cl)cccc3Cl)noc2C2CC2)cc1` (stereo partly drawn) [Compound I-234, (1S,4S,5R)-2-{4-[(cyclopropanesulfonyl)carbamoyl]phenyl}-5-{[5-cyclopropyl-3-(2,6-dichlorophenyl)-1,2-oxazol-4-yl]methoxy}-2-azabicyclo[2.2.1]heptan-2-ium-2-olate] were 8.1, 146%, 102% and 1.58 nM.
The matching figures for `Cc1cccc(Cl)c1-c1noc(C2CC2)c1CO[C@@H]1C[C@@H]2C[C@H]1C(=O)N2c1ccc(C(=O)O)cc1` [Compound I-309, 4-[(1S,4R,5R)-5-{[3-(2-chloro-6-methylphenyl)-5-cyclopropyl-1,2-oxazol-4-yl]methoxy}-3-oxo-2-azabicyclo[2.2.1]heptan-2-yl]benzoic Acid]: 8.2, 157%, 104% and 1.58 nM.
Taken in the same sequence, the figures for `O=C(O)c1cc([C@H]2CCOC2)c2nc(N3C[C@@H]4C[C@H]3C[C@H]4OCc3c(-c4c(Cl)cccc4Cl)noc3C3CC3)sc2c1` [Compound I-253, 2-[(1S,4S,5R)-5-{[5-cyclopropyl-3-(2,6-dichlorophenyl)-1,2-oxazol-4-yl]methoxy}-2-azabicyclo[2.2.1]heptan-2-yl]-4-[(3R)-oxolan-3-yl]-1,3-benzothiazole-6-carboxylic Acid] were 8.6, 140%, 107% and 0.158 nM.
Turning to `O=C(O)c1cc(F)c2nc(N3C[C@@H]4C[C@H]3C[C@H]4OCc3c(-c4ccccc4C(F)(F)F)noc3C3CC3)sc2c1` [Compound I-19, 2-[(1S,4S,5R)-5-([5-cyclopropyl-3-[2-(trifluoromethyl)phenyl]-1,2-oxazol-4-yl]methoxy)-2-azabicyclo[2.2.1]heptan-2-yl]-4-fluoro-1,3-benzothiazole-6-carboxylic Acid], in assay [1], the pEC50 came to 8. Further, the Emax worked out at 178% in assay [1] (setting [3]) and 114% in assay [2] (setting [3]). This molecule gave a 50% effective concentration (EC50) in assay [2] (setting [4]) of 2 nM.
With `Cc1cccc(C)c1-c1noc(C2CC2)c1CO[C@@H]1C[C@@H]2C[C@H]1CN2c1nc2c(C)cc(C(=O)O)cc2s1` [Compound I-276, 2-[(1S,4S,5R)-5-{[5-cyclopropyl-3-(2,6-dimethylphenyl)-1,2-oxazol-4-yl]methoxy}-2-azabicyclo[2.2.1]heptan-2-yl]-4-methyl-1,3-benzothiazole-6-carboxylic Acid], in assay [1], the negative-log EC50 (pEC50) worked out at 8.2. The Emax in assay [1] (setting [3]) was found to be 124%; in assay [2] (setting [3]), 114%. The same molecule showed an EC50 in assay [2] (setting [4]) of 3.98 nM.
For the molecule `O=C(NS(=O)(=O)C1CCOCC1)c1ccc(N2C(=O)[C@@H]3C[C@H]2C[C@H]3OCc2c(-c3c(Cl)cccc3Cl)noc2C2CC2)cc1` [Compound I-338], in assay [1], the pEC50 stood at 8.9. Besides, the Emax in assay [1] (setting [3]) was determined as 158%; in assay [2] (setting [3]), 106%. This molecule also had an EC50 in assay [2] (setting [4]) of 15.8 nM.
In the case of `O=C(O)c1ccc(N2C[C@@H]3C[C@H]2C[C@H]3OCc2c(-c3ccccc3C(F)(F)F)noc2C2CC2)c(F)c1` [Compound I-121, 4-[(1S,4S,5R)-5-({5-cyclopropyl-3-[2-(trifluoromethyl)phenyl]-1,2-oxazol-4-yl}methoxy)-2-azabicyclo[2.2.1]heptan-2-yl]-3-fluorobenzoic Acid], the Emax in assay [1] (setting [3]) was 174%; in assay [2] (setting [3]) it was 107%. In assay [2] (setting [4]), this molecule showed an EC50 of 1.26 nM.
As for `O=C(NS(=O)(=O)[C@H]1CC[C@H](O)CC1)c1ccc(N2C[C@@H]3C[C@H]2C[C@H]3OCc2c(-c3c(Cl)cccc3Cl)noc2C2CC2)cc1` [Compound I-221, 4-[(1S,4S,5R)-5-{[5-cyclopropyl-3-(2,6-dichlorophenyl)-1,2-oxazol-4-yl]methoxy}-2-azabicyclo[2.2.1]heptan-2-yl]-N-{[(1r,4r)-4-hydroxycyclohexyl]sulfonyl}benzamide], the results for the pEC50 in assay [1] and in assay [2] (setting [4]) were 8.8 and 9.5, respectively. Besides, the “% Efficacy” value in assay [1] (setting [3]) came out at 147%; in assay [2] (setting [3]), 108%.
Take `CS(=O)(=O)NC(=O)c1cc(F)c2nc(N3C[C@@H]4C[C@H]3C[C@H]4OCc3c(-c4c(Cl)cccc4Cl)noc3C3CC3)sc2c1` [Compound I-28, 2-[(1S,4S,5R)-5-{[5-cyclopropyl-3-(2,6-dichlorophenyl)-1,2-oxazol-4-yl]methoxy}-2-azabicyclo[2.2.1]heptan-2-yl]-4-fluoro-N-methanesulfonyl-1,3-benzothiazole-6-carboxamide]: in assay [1], the pEC50 was found to be 8.9. Moreover, the figures for the Emax in assay [1] (setting [3]) and in assay [2] (setting [3]) were 153% and 122%, respectively. This molecule also had an EC50 in assay [2] (setting [4]) of 2 nM.
Taken in the same sequence, the figures for `O=C(O)[C@@H]1CCc2cc(N3C[C@@H]4C[C@H]3C[C@H]4OCc3c(-c4c(Cl)cccc4Cl)noc3C3CC3)ccc2C1` (single isomer, unassigned) [Compound I-137] were 8, 132%, 106% and 10 nM.
`Cc1cc(C(=O)O)cc2sc(N3C[C@@H]4C[C@H]3C[C@H]4OCc3c(-c4c(Cl)cccc4Cl)noc3C3CC3)nc12` [Compound I-13, 2-[(1S,4S,5R)-5-{[5-cyclopropyl-3-(2,6-dichlorophenyl)-1,2-oxazol-4-yl]methoxy}-2-azabicyclo[2.2.1]heptan-2-yl]-4-methyl-1,3-benzothiazole-6-carboxylic acid]: the pEC50 in assay [1] is given as 8.6. Besides, the Emax in assay [1] (setting [3]) was 174%; in assay [2] (setting [3]), 116%. In assay [2] (setting [4]), this molecule had an EC50 of 0.158 nM.
Molecule `O=C(NS(=O)(=O)[C@@H]1CCC[C@H]1O)c1ccc(N2C(=O)[C@@H]3C[C@H]2C[C@H]3OCc2c(-c3c(Cl)cccc3Cl)noc2C2CC2)cc1` [Compound I-344, 4-[(1S,4R,5R)-5-{[5-cyclopropyl-3-(2,6-dichlorophenyl)-1,2-oxazol-4-yl]methoxy}-3-oxo-2-azabicyclo[2.2.1]heptan-2-yl]-N-{[(1R,2R)-2-hydroxycyclopentyl]sulfonyl}benzamide] came in with a pEC50 in assay [1] of 8.4. The Emax in assay [1] (setting [3]) worked out at 203%; in assay [2] (setting [3]), 132%. In assay [2] (setting [4]), this molecule showed an EC50 of 1.58 nM.
The matching figures for `CS(=O)(=O)NC(=O)c1ccc(N2C[C@@H]3C[C@H]2C[C@H]3OC(=O)c2c(-c3c(Cl)cccc3Cl)noc2C2CC2)cc1` [Compound I-45, (1S,4S,5R)-2-[4-(methanesulfonylcarbamoyl)phenyl]-2-azabicyclo[2.2.1]heptan-5-yl 5-cyclopropyl-3-(2,6-dichlorophenyl)-1,2-oxazole-4-carboxylate]: 7.5, 152%, 107% and 25.1 nM.

These data come from patent US10793568B2, “Hormone receptor modulators for treating metabolic conditions and disorders” (ARDELYX, INC., priority 2016, dated 2020).
